Laboratory results published in US5602101A, “Antithrombotic agents” (priority 1994, dated 1997).
Like-named read-outs stand apart in the source and are kept apart here. Non-standard residues stand in square brackets, D forms with d. Residues, ends and D or L forms follow the SMILES beside them. dNMeCha = CN[C@H](CC1CCCCC1)C(=O)O; dCha = N[C@H](CC1CCCCC1)C(=O)O

Assays:
human thrombin = biological target: T1, human thrombin (Homo sapiens, UniProt P00734); test: Inhibition of amidase activity of thrombin (chromogenic substrate), Kass; format: biochemical; details: substrate N-benzoyl-Phe-Val-Arg-p-nitroanilide, pH 7.4
T1 construct: purified human thrombin Enzyme Research Laboratories, South Bend, Ind; purchased Enzyme Research Laboratories, South Bend, Ind
In short: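 Human thrombin (8 NIH units/ml solution) with compound in 0.03M Tris, 0.15M NaCl, pH 7.4; chromogenic substrate hydrolysis followed at 405 nm. Free thrombin from standard curves gives bound enzyme and free inhibitor; Kass, an association equilibrium constant in L/mol, averaged over a compound concentration range.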

factor Xa = biological target: T2, factor Xa (Homo sapiens, UniProt P00742); test: Serine protease inhibition, factor Xa (chromogenic substrate), Kass; format: biochemical; details: substrate N-Benzoyl-Ile-Glu-Gly-Arg-p-nitroanilide
T2 construct: Human factors X, Xa, IXa, XIa, and xIIa are purchased from Enzyme Research Laboratories; purchased Enzyme Research Laboratories, South Bend, Ind
In short: (§1)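 Enzyme mixed with test compound in 0.03M Tris, 0.15M NaCl, pH 7.4, then p-nitroanilide substrate added (Bz-Ile-Glu-Gly-Arg-pNA for factor Xa; Bz-Phe-Val-Arg-pNA for trypsin; H-D-Ile-Pro-Arg-pNA for t-PA; H-D-Val-Leu-Lys-pNA for plasmin); hydrolysis followed at 405 nm. Free enzyme from standard curves gave bound enzyme and free inhibitor; Kass (L/mol) averaged over several compound concentrations.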

Bovine trypsin = biological target: T3, Bovine trypsin (Bos taurus, UniProt P00760); test: Serine protease inhibition, trypsin (chromogenic substrate), Kass; format: biochemical; details: substrate N-Benzoyl-Phe-Val-Arg-p-nitroanilide
T3 construct: Bovine trypsin is purchased from Worthington Biochemicals, Freehold, N.J; purchased Worthington Biochemicals, Freehold, N.J
T3 sequence (P00760 24-246): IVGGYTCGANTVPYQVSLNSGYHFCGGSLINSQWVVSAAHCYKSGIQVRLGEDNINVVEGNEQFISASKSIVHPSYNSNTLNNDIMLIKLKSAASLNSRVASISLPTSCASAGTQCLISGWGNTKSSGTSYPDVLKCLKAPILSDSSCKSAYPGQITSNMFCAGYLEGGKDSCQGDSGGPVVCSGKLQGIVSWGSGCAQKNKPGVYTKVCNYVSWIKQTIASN
In short: as §1

Human plasmin = biological target: T4, Human plasmin (Homo sapiens, UniProt P00747); test: Serine protease inhibition, plasmin (chromogenic substrate), Kass; format: biochemical; details: substrate H-D-Val-Leu-Lys-p-nitroanilide
T4 construct: Human plasmin is purchased from Boehringer Mannheim, Indianapolis, Ind; purchased Boehringer Mannheim, Indianapolis, Ind
In short: as §1

[1] = biological target: T5, tissue plasminogen activator (t-PA) (Homo sapiens, UniProt P00750); test: Serine protease inhibition, t-PA (chromogenic substrate), Kass; format: biochemical; details: substrate H-D-Ile-Pro-Arg-p-nitroanilide
T5 construct: purchased American Diagnostics, Greenwich, Conn
In short: as §1

Human Plasma [2] = test: Anticoagulation in human plasma, thrombin time (TT); format: biochemical; details: concentration required to double the thrombin time
In short: (§2)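 Compounds were added to human plasma over a range of concentrations. PT used Thromboplastin-C reagent with saline; APTT used a 120-second Actin preincubation followed by 0.02M CaCl2, and TT used bovine thrombin. Clotting times were read on a CoAScreener, and the concentration doubling clotting time was estimated by linear extrapolation.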

Human Plasma [3] = test: Anticoagulation in human plasma, activated partial thromboplastin time (APTT); format: biochemical; details: concentration required to double the APTT
In short: as §2

Human Plasma [4] = test: Anticoagulation in human plasma, prothrombin time (PT); format: biochemical; details: concentration required to double the PT
In short: as §2

[5] = Index of bioavailability (plasma TT AUC, p.o. vs i.v.); details: rats, adjusted for dose
Protocol: (§3) Male Sprague Dawley rats (350-425 gm, Harlan Sprague Dawley Inc., Indianapolis, Ind.) are anesthetized with xylazine (20 mg/kg, s.c.) and ketamine (120 mg/kg, s.c.) and maintained on a heated water blanket (37° C.). The jugular vein(s) is cannulated to allow for infusions.
(§4) Plasma thrombin time (TT) and activated partial thromboplastin time (APTT) are measured with a fibrometer. Blood is sampled from a jugular catheter and collected in syringe containing sodium citrate (3.8%, 1 part to 9 parts blood). To measure TT, rat plasma (0.1 ml) is mixed with saline (0.1 ml) and bovine thrombin (0.1 ml, 30 U/ml in TRIS buffer; Parke Davis) at 37° C. For APTT, plasma (0.1 ml) and APTT solution (0.1 ml, Organon Teknika are incubated for 5 minutes (37° C.) and CaCl2 (0.01 ml, 0,025M) is added to start coagulation. Assays are done in duplicate and averaged.
(§5) The time course of the effect of the thrombin inhibitor upon TT is determined after i.v bolus administration to anesthetized rats and after oral treatment of fasted conscious rats. Due to limitations of blood volume and the number of points required to determine the time course from time of treatment to the time when the response returns to pretreatment values, two populations of rats are used. Each sample population represents alternating sequential time points. The average TT over the time course is used to calculate area under the curve (AUC). The index of bioavailability is calculated by the formula shown below and is expressed as percent relative activity.
(§6) The area under the curve (AUC) of the plasma TT time course is determined and adjusted for the dose. This index of bioavailability is termed "% Relative Activity" and is calculated as [formula]
(§7) Compound solutions are prepared fresh daily in normal saline and are injected as a bolus or are infused starting 15 min before and continuing throughout the experimental perturbation which is 15 minutes in the arteriovenous shunt model and 60 minutes in the FeCl3 model of arterial injury and in the spontaneous thrombolysis model. Bolus injection volume is 1 ml/kg for i.v., and 5 ml/kg for p.o. and infusion volume is 3 ml/hr.

[6] = rat, in vivo
Protocol: as §3, §4, §5, §6, §7

T2 sequence (P00742 235-488 limits assumed): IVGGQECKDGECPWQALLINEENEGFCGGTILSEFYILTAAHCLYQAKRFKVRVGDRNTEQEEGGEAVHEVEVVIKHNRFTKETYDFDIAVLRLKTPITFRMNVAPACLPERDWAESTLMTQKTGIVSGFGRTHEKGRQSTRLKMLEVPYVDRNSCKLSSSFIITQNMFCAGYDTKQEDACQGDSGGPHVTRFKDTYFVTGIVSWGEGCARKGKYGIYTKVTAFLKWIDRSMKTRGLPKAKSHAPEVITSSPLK
T2 sequence (P00742 41-179 partner limits assumed): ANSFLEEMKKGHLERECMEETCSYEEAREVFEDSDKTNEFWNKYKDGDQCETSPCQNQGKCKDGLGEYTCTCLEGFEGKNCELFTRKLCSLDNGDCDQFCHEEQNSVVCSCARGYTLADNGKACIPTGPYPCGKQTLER
T4 sequence (P00747 581-810 limits assumed): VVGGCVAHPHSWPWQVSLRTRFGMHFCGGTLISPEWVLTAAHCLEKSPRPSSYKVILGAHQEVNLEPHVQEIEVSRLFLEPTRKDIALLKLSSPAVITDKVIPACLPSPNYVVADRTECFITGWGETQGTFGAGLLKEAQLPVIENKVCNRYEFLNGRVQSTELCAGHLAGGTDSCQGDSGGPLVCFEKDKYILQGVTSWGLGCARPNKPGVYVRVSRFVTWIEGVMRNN
T4 sequence (P00747 97-580 partner limits assumed): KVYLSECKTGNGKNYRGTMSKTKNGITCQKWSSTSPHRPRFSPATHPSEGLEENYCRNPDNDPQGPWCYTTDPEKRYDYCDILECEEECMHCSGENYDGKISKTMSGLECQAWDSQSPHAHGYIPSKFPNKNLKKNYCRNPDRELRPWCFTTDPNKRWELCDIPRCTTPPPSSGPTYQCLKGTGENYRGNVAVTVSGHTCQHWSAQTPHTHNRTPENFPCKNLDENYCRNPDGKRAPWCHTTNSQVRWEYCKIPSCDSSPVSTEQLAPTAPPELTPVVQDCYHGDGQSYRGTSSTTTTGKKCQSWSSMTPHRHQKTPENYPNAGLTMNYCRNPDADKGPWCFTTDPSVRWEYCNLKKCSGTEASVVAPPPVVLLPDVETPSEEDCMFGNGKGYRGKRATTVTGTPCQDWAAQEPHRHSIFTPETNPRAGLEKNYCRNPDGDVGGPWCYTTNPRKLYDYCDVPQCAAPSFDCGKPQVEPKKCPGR
T5 sequence (P00750 36-562): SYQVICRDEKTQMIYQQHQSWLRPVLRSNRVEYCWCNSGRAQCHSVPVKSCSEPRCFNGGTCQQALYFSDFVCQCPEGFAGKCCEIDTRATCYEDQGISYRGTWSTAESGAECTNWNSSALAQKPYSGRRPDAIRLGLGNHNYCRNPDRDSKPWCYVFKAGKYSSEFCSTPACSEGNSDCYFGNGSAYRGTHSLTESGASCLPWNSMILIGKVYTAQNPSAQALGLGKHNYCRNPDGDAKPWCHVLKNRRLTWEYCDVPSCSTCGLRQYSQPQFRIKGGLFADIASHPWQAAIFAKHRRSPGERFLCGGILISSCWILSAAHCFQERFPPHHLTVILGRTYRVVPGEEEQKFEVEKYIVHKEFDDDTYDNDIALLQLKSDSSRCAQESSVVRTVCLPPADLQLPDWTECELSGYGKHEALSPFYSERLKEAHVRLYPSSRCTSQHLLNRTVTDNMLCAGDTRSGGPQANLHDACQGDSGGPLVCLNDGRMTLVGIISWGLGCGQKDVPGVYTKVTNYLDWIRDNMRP

SMILES | Enzyme Kass, Human Thrombin (human thrombin) [L/mol × 10^6] | Enzyme Kass, Xa (factor Xa) [L/mol × 10^6] | Enzyme Kass, Trypsin (Bovine trypsin) [L/mol × 10^6] | Enzyme Kass, Plasmin (Human plasmin) [L/mol × 10^6] | Enzyme Kass, t-Pa [1] [L/mol × 10^6] | 2 × Clotting time, TT (Human Plasma [2]) [ng/mL] | 2 × Clotting time, APTT (Human Plasma [3]) | 2 × Clotting time, PT (Human Plasma [4]) | Index of Bioavailability, % Relative Activity [5] [%] | Index of Bioavailability, % Relative Activity [6] [%]
Cl.N=C(N)NCCC[C@@H](C=O)NC(=O)[C@@H]1CCCN1C(=O)[C@@H](Cc1ccccc1)NS(=O)(=O)c1ccccc1 [Example 13, PhSO2 -D-Phe-Pro-Arg-H.HCl] | 270 | 3.6 | 180 | 19 | 2.3 | 14 | 450 ng/mL | 930 ng/mL | 3 | –
Cl.N=C(N)NCCC[C@@H](C=O)NC(=O)[C@@H]1CCCN1C(=O)[C@@H](Cc1ccccc1)NS(=O)(=O)c1ccc(F)cc1F [Example 14, 2,4-F-PhSO2 -D-Phe-Pro-Arg-H-HCl] | 230 | 11 | 160 | 25 | 2.4 | 21 | 350 ng/mL | 940 ng/mL | 6 | –
Cl.N=C(N)NCCC[C@@H](C=O)NC(=O)[C@@H]1CCCN1C(=O)[C@@H](Cc1ccccc1)NS(=O)(=O)c1ccc(C(=O)O)cc1 [Example 18, 4-(HO2 C)-C6 H4 SO2 -D-Phe-Pro-Arg-H.HCl] | 70 | 2.0 | 43 | 7.0 | 1.1 | 120 | 1,200 ng/ML | 3,000 ng/ML | 13 | –
CCS(=O)(=O)N[C@H](CC1CCCCC1)C(=O)N1CCC[C@H]1C(=O)N[C@H](C=O)CCCNC(=N)N.Cl [Example 21, EtSO2 -D-Cha-Pro-Arg-H.HCl] | 550 | 20 | 200 | 45 | 0.73 | 25 | 260 ng/mL | 730 ng/mL | – | 19
CC(=O)N[C@H](CC1CCCCC1)C(=O)N1CCC[C@H]1C(=O)N[C@H](C=O)CCCNC(=N)N.Cl [Example 28, Ac-D-Cha-Pro-Arg-H.HCl] (Ac-[dCha]-Pro-Arg-aldehyde) | 26 | 1.1 | 12 | 0.61 | 0.035 | 92 | 1,900 ng/ML | 3,500 ng/ML | – | 9
Cl.N=C(N)NCCC[C@@H](C=O)NC(=O)[C@@H]1CCCN1C(=O)[C@@H](Cc1ccccc1)NCC1CCCCC1 [Example 30, cyclohexyl-CH2 -D-phe-pro-Arg-H.HCl] | 480 | 0.11 | 69 | 0.49 | 0.046 | 16 | 860 ng/mL | 1,200 ng/ML | 1 | –
CN[C@H](CC1CCCCC1)C(=O)N1CCC[C@H]1C(=O)N[C@H](C=O)CCCNC(=N)N.Cl [Example 31, Me-D-Cha-Pro-Arg-H.HCl] (H-[dNMeCha]-Pro-Arg-aldehyde) | 590 | 5.6 | 160 | 7.7 | 0.037 | 18 | 420 ng/mL | 720 ng/mL | – | 13
CCOC(=O)N[C@H](Cc1ccccc1)C(=O)N1CCC[C@H]1C(=O)N[C@H](C=O)CCCNC(=N)N.Cl [Example 33, EtOCO-D-Phe-Pro-Arg-H.HCl] | 170 | 2.3 | 240 | 16 | 2.5 | 22 | 390 ng/mL | 2,000 ng/ML | 14 | –
